# Test results reported in PubChem BioAssay (NCI).
#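 Step 1: Grow cells in 96-well plates. Step 2: Expose to compound for 48 hours at 5 concentrations. Step 3: Interpolate endpoints linearly; if unreached, use highest concentration. At the TGI there is no net growth.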
# Experiments:
# Assay in all cases: DTP human tumour cell line panel, 48 h
# [1] = tested on: OVCAR-5 ovarian
# [2] = tested on: NCI-H460 lung
# [3] = tested on: HCC-2998 colon
# [4] = tested on: SW-620 colon
# [5] = tested on: IGROV1 ovarian
# [6] = tested on: DMS 114 small cell lung
# [7] = tested on: SF-539 CNS
# [8] = tested on: UACC-257 melanoma
# [9] = tested on: SF-268 CNS
# [10] = tested on: OVCAR-3 ovarian
# [11] = tested on: CAKI-1 renal
# [12] = tested on: M14 melanoma
# [13] = tested on: SK-MEL-28 melanoma
# [14] = tested on: HL-60(TB) leukemia
# [15] = tested on: M19-MEL melanoma
# [16] = tested on: HOP-62 NSCLC
# [17] = tested on: CCRF-CEM leukemia
# [18] = tested on: DLD-1 colon
# [19] = tested on: SNB-75 CNS
# [20] = tested on: NCI-H23 lung
# [21] = tested on: SK-OV-3 ovarian
# [22] = tested on: SNB-19 CNS
# [23] = tested on: TK-10 renal
# [24] = tested on: KM12 colon
# [25] = tested on: A498 renal
# [26] = tested on: COLO 205 colon
# [27] = tested on: A549 NSCLC
# [28] = tested on: EKVX NSCLC
# [29] = tested on: NCI-H522 lung
# [30] = tested on: SK-MEL-2 melanoma
# [31] = tested on: LXFL 529 NSCLC
# [32] = tested on: HCT-15 colon
# [33] = tested on: K-562 leukemia
# [34] = tested on: KM20L2 colon
# [35] = tested on: SR leukemia
# [36] = tested on: DMS 273 small cell lung
# [37] = tested on: SK-MEL-5 melanoma
# [38] = tested on: U251 CNS
# [39] = tested on: HOP-18 NSCLC
# [40] = tested on: MALME-3M melanoma
# [41] = tested on: ACHN renal
# [42] = tested on: OVCAR-8 ovarian
# [43] = tested on: HCT-116 colon
# [44] = tested on: SNB-78 CNS
# [45] = tested on: 786-0 renal
# [46] = tested on: HOP-92 NSCLC
# [47] = tested on: SN12C renal
# [48] = tested on: UO-31 renal
# [49] = tested on: UACC-62 melanoma
# [50] = tested on: LOX IMVI melanoma
# [51] = tested on: HT29 colon
# [52] = tested on: SF-295 CNS
# [53] = tested on: RPMI-8226 leukemia
# [54] = tested on: OVCAR-4 ovarian
# [55] = tested on: RXF 393 renal
# [56] = tested on: NCI-H226 lung
# [57] = tested on: MOLT-4 leukemia
compound,measurement,setting,value
CCOC(=O)C1=C(C)N2CCOC2(C)C(C(=O)OC)C1c1cccc(Cl)c1 (configuration not stated),TGI,[1],> 100 µM
same,TGI,[2],> 100 µM
same,TGI,[3],> 100 µM
same,TGI,[4],> 100 µM
same,TGI,[5],> 100 µM
same,TGI,[6],> 100 µM
same,TGI,[7],> 100 µM
same,TGI,[8],> 100 µM
same,TGI,[9],> 100 µM
same,TGI,[10],> 100 µM
same,TGI,[11],> 100 µM
same,TGI,[12],> 100 µM
same,TGI,[13],> 100 µM
same,TGI,[14],> 100 µM
same,TGI,[15],> 100 µM
same,TGI,[16],> 100 µM
same,TGI,[17],> 100 µM
same,TGI,[18],> 100 µM
same,TGI,[19],> 100 µM
same,TGI,[20],> 100 µM
same,TGI,[21],> 100 µM
same,TGI,[22],> 100 µM
same,TGI,[23],> 100 µM
same,TGI,[24],> 100 µM
same,TGI,[25],> 100 µM
same,TGI,[26],> 100 µM
same,TGI,[27],> 100 µM
same,TGI,[28],> 100 µM
same,TGI,[29],> 100 µM
same,TGI,[30],> 100 µM
same,TGI,[31],> 100 µM
same,TGI,[32],> 100 µM
same,TGI,[33],> 100 µM
same,TGI,[34],> 100 µM
same,TGI,[35],> 100 µM
same,TGI,[36],> 100 µM
same,TGI,[37],> 100 µM
same,TGI,[38],> 100 µM
same,TGI,[39],> 100 µM
same,TGI,[40],> 100 µM
same,TGI,[41],> 100 µM
same,TGI,[42],> 100 µM
same,TGI,[43],> 100 µM
same,TGI,[44],> 100 µM
same,TGI,[45],> 100 µM
same,TGI,[46],> 100 µM
same,TGI,[47],> 100 µM
same,TGI,[48],> 100 µM
same,TGI,[49],> 100 µM
same,TGI,[50],> 100 µM
same,TGI,[51],> 100 µM
same,TGI,[52],> 100 µM
same,TGI,[53],> 100 µM
CCN(CC)c1c(C(=O)/C=C/c2ccc(F)cc2)c(-c2ccccc2)nn(C)c1=O,TGI,[1],41.9 µM
same,TGI,[2],18.8 µM
same,TGI,[54],20.5 µM
same,TGI,[55],11 µM
same,TGI,[3],10.5 µM
same,TGI,[4],34.8 µM
same,TGI,[5],21.9 µM
same,TGI,[6],19.2 µM
same,TGI,[8],21.2 µM
same,TGI,[9],35.8 µM
same,TGI,[10],21.2 µM
same,TGI,[11],69.6 µM
same,TGI,[12],25.6 µM
same,TGI,[13],31.5 µM
same,TGI,[14],15.7 µM
same,TGI,[15],25.1 µM
same,TGI,[16],28.6 µM
same,TGI,[17],6.82 µM
same,TGI,[18],26.7 µM
same,TGI,[19],22.5 µM
same,TGI,[20],16.5 µM
same,TGI,[21],60.8 µM
same,TGI,[22],58.4 µM
same,TGI,[23],38.5 µM
same,TGI,[24],18.9 µM
same,TGI,[25],21.1 µM
same,TGI,[26],14.8 µM
same,TGI,[56],34 µM
same,TGI,[27],43.2 µM
same,TGI,[28],55.3 µM
same,TGI,[29],13.9 µM
same,TGI,[30],16.7 µM
same,TGI,[31],19.9 µM
same,TGI,[32],25.7 µM
same,TGI,[33],34.1 µM
same,TGI,[34],44.4 µM
same,TGI,[36],21 µM
same,TGI,[37],21.1 µM
same,TGI,[38],19.1 µM
same,TGI,[39],58.4 µM
same,TGI,[40],27.8 µM
same,TGI,[41],20.6 µM
same,TGI,[42],19.1 µM
same,TGI,[43],14.5 µM
same,TGI,[44],44.9 µM
same,TGI,[45],23.2 µM
same,TGI,[46],19.4 µM
same,TGI,[47],21.8 µM
same,TGI,[48],24.4 µM
same,TGI,[49],33.1 µM
same,TGI,[50],23.6 µM
same,TGI,[57],5.91 µM
same,TGI,[51],18.6 µM
same,TGI,[52],34 µM
same,TGI,[53],9.89 µM
CCCCCCCC/C=C/CCCCCCCC(=O)N(O)C1CC(n2cc(C)c(=O)[nH]c2=O)OC1CO (configuration not stated),TGI,[1],22.3 µM
same,TGI,[2],13.6 µM
same,TGI,[54],25 µM
same,TGI,[55],16.2 µM
same,TGI,[3],22.4 µM
same,TGI,[4],23.8 µM
same,TGI,[5],17.6 µM
same,TGI,[6],10.9 µM
same,TGI,[7],24.2 µM
same,TGI,[8],26.7 µM
same,TGI,[9],26.3 µM
same,TGI,[10],20.1 µM
same,TGI,[11],21.6 µM
same,TGI,[12],10.1 µM
same,TGI,[13],19.4 µM
same,TGI,[15],17.7 µM
same,TGI,[16],18.1 µM
same,TGI,[17],20.4 µM
same,TGI,[18],18.4 µM
same,TGI,[19],29.8 µM
same,TGI,[20],23.2 µM
same,TGI,[21],21.9 µM
same,TGI,[22],25.5 µM
same,TGI,[23],22.7 µM
same,TGI,[24],23.3 µM
same,TGI,[25],32.2 µM
same,TGI,[26],16.7 µM
same,TGI,[27],33.9 µM
same,TGI,[29],20.2 µM
same,TGI,[30],26.9 µM
same,TGI,[31],22.4 µM
same,TGI,[32],16.2 µM
same,TGI,[33],21 µM
same,TGI,[34],16.4 µM
same,TGI,[35],20.5 µM
same,TGI,[36],16.1 µM
same,TGI,[37],19.5 µM
same,TGI,[38],17 µM
same,TGI,[39],13.9 µM
same,TGI,[40],22 µM
same,TGI,[41],18 µM
same,TGI,[42],24.9 µM
same,TGI,[43],20.6 µM
same,TGI,[44],45.8 µM
same,TGI,[45],16 µM
same,TGI,[46],28.7 µM
same,TGI,[47],22.8 µM
same,TGI,[48],14.4 µM
same,TGI,[49],11 µM
same,TGI,[50],17.3 µM
same,TGI,[57],19.6 µM
same,TGI,[51],22.4 µM
same,TGI,[52],21.4 µM
same,TGI,[53],50.1 µM
N/N=c1\c2ccccc2c2ccc3c4ccccc4/c(=N\N)c3c12,TGI,[1],> 100 µM
same,TGI,[2],> 100 µM
same,TGI,[54],> 100 µM
same,TGI,[55],> 100 µM
same,TGI,[3],> 100 µM
same,TGI,[4],> 100 µM
same,TGI,[5],> 100 µM
same,TGI,[6],> 100 µM
same,TGI,[7],> 100 µM
same,TGI,[8],> 100 µM
same,TGI,[9],> 100 µM
same,TGI,[12],> 100 µM
same,TGI,[13],> 100 µM
same,TGI,[14],> 100 µM
same,TGI,[15],> 100 µM
same,TGI,[16],> 100 µM
same,TGI,[17],> 100 µM
same,TGI,[18],> 100 µM
same,TGI,[19],> 100 µM
same,TGI,[20],> 100 µM
same,TGI,[21],> 100 µM
same,TGI,[22],> 100 µM
same,TGI,[24],> 100 µM
same,TGI,[26],> 100 µM
same,TGI,[56],> 100 µM
same,TGI,[27],> 100 µM
same,TGI,[28],> 100 µM
same,TGI,[29],> 100 µM
same,TGI,[30],> 100 µM
same,TGI,[31],> 100 µM
same,TGI,[32],> 100 µM
same,TGI,[33],> 100 µM
same,TGI,[34],> 100 µM
same,TGI,[35],> 100 µM
same,TGI,[36],> 100 µM
same,TGI,[37],> 100 µM
same,TGI,[38],> 100 µM
same,TGI,[39],> 100 µM
same,TGI,[40],> 100 µM
same,TGI,[41],> 100 µM
same,TGI,[42],> 100 µM
same,TGI,[43],> 100 µM
same,TGI,[44],> 100 µM
same,TGI,[45],> 100 µM
same,TGI,[46],> 100 µM
same,TGI,[47],> 100 µM
same,TGI,[48],> 100 µM
same,TGI,[49],> 100 µM
same,TGI,[57],> 100 µM
same,TGI,[51],> 100 µM
same,TGI,[52],> 100 µM
same,TGI,[53],> 100 µM
CC(C)C(NCc1c2ccccc2[n+]([O-])c2ccccc12)C(=O)O (configuration not stated),TGI,[1],> 100 µM
same,TGI,[2],> 100 µM
same,TGI,[54],> 100 µM
same,TGI,[3],> 100 µM
same,TGI,[4],> 100 µM
same,TGI,[5],> 100 µM
same,TGI,[6],> 100 µM
same,TGI,[8],> 100 µM
same,TGI,[9],> 100 µM
same,TGI,[10],> 100 µM
same,TGI,[11],> 100 µM
same,TGI,[12],> 100 µM
same,TGI,[13],> 100 µM
same,TGI,[14],76 µM
same,TGI,[16],> 100 µM
same,TGI,[17],> 100 µM
same,TGI,[18],> 100 µM
same,TGI,[19],> 100 µM
same,TGI,[20],> 100 µM
same,TGI,[21],> 100 µM
same,TGI,[22],> 100 µM
same,TGI,[23],> 100 µM
same,TGI,[24],> 100 µM
same,TGI,[25],> 100 µM
same,TGI,[26],> 100 µM
same,TGI,[56],> 100 µM
same,TGI,[27],> 100 µM
same,TGI,[28],> 100 µM
same,TGI,[29],> 100 µM
same,TGI,[30],> 100 µM
same,TGI,[31],> 100 µM
same,TGI,[32],> 100 µM
same,TGI,[33],> 100 µM
same,TGI,[34],> 100 µM
same,TGI,[36],> 100 µM
same,TGI,[37],> 100 µM
same,TGI,[38],> 100 µM
same,TGI,[39],> 100 µM
same,TGI,[40],> 100 µM
same,TGI,[41],> 100 µM
same,TGI,[42],> 100 µM
same,TGI,[43],> 100 µM
same,TGI,[44],> 100 µM
same,TGI,[45],> 100 µM
same,TGI,[46],53.2 µM
same,TGI,[47],> 100 µM
same,TGI,[48],> 100 µM
same,TGI,[49],> 100 µM
same,TGI,[50],> 100 µM
same,TGI,[57],> 100 µM
same,TGI,[51],> 100 µM
same,TGI,[52],> 100 µM
same,TGI,[53],86.5 µM
